Measured values from paper PMC4968608 (Cancer Science, 2016).
Marks after values point to notes of the source that are not given here.

Key:
[1] = system: Japanese patients with advanced solid tumors; test: Treatment-related adverse events, part 1; type: in vivo, human; details: for Any AE (treatment-related), All grades / Any AE (treatment-related), Grade 3/4 / Blood creatinine increased (treatment-related AE), All grades / Blood creatinine increased (treatment-related AE), Grade 3/4 / Diarrhea (treatment-related AE), All grades / Diarrhea (treatment-related AE), Grade 3/4 / Fatigue (treatment-related AE), All grades / Fatigue (treatment-related AE), Grade 3/4 / Lymphocytes decreased (treatment-related AE), All grades / Lymphocytes decreased (treatment-related AE), Grade 3/4 / Neutropenia (treatment-related), all grades / Neutropenia (treatment-related), grade 3/4 / Neutrophils decreased (treatment-related AE), All grades / Neutrophils decreased (treatment-related AE), Grade 3/4 / Platelets decreased (treatment-related AE), All grades / Platelets decreased (treatment-related AE), Grade 3/4 / WBCs decreased (treatment-related AE), All grades / WBCs decreased (treatment-related AE), Grade 3/4: part 1, n = 6
[2] = system: estrogen receptor‐positive (ER+) luminal breast cancer cell lines; details: cited from earlier work
[3] = Plasma palbociclib pharmacokinetics, part 1; type: in vivo, human; details: for AUC(0-t): geometric mean (geometric %CV); for half-life: t½, arithmetic mean ± SD
[4] = system: Japanese patients with advanced solid tumors; test: Dose-limiting toxicity and MTD determination, part 1; type: in vivo, human; details: cycle 1; for DLT: stage IV, person
[5] = Plasma palbociclib concentrations with letrozole, part 2; type: in vivo, human; details: palbociclib 125 mg + letrozole 2.5 mg once daily, multiple doses, part 2, day 15 of cycles 1 and 2
[6] = system: advanced solid tumors; test: Antitumor activity; type: in vivo, human
[7] = Trough plasma letrozole concentrations, part 2; type: in vivo, human
[8] = 100 mg, part 1, patient: breast cancer (first listed)

## CC(=O)c1c(C)c2cnc(Nc3ccc(N4CCNCC4)cn3)nc2n(C2CCCC2)c1=O [Palbociclib]
[1]; 100 mg once daily
  Any AE (treatment-related), All grades: 6 (100) n (%)
  Any AE (treatment-related), Grade 3/4: 4 (67) n (%)
  Blood creatinine increased (treatment-related AE), All grades: 2 (33) n (%)
  Blood creatinine increased (treatment-related AE), Grade 3/4: 0 (0) n (%)
  Diarrhea (treatment-related AE), All grades: 0 (0) n (%)
  Diarrhea (treatment-related AE), Grade 3/4: 0 (0) n (%)
  Fatigue (treatment-related AE), All grades: 0 (0) n (%)
  Fatigue (treatment-related AE), Grade 3/4: 0 (0) n (%)
  Lymphocytes decreased (treatment-related AE), All grades: 1 (17) n (%)
  Lymphocytes decreased (treatment-related AE), Grade 3/4: 1 (17) n (%)
  Neutropenia (treatment-related), all grades: 83%
  Neutropenia (treatment-related), grade 3/4: 67%
  Neutrophils decreased (treatment-related AE), All grades: 5 (83) n (%)
  Neutrophils decreased (treatment-related AE), Grade 3/4: 4 (67) n (%)
  Platelets decreased (treatment-related AE), All grades: 1 (17) n (%)
  Platelets decreased (treatment-related AE), Grade 3/4: 0 (0) n (%)
  WBCs decreased (treatment-related AE), All grades: 4 (67) n (%)
  WBCs decreased (treatment-related AE), Grade 3/4: 2 (33) n (%)
[1]; 125 mg once daily
  Any AE (treatment-related), All grades: 5 (83) n (%)
  Any AE (treatment-related), Grade 3/4: 4 (67) n (%)
  Blood creatinine increased (treatment-related AE), All grades: 0 (0) n (%)
  Blood creatinine increased (treatment-related AE), Grade 3/4: 0 (0) n (%)
  Diarrhea (treatment-related AE), All grades: 2 (33) n (%)
  Diarrhea (treatment-related AE), Grade 3/4: 0 (0) n (%)
  Fatigue (treatment-related AE), All grades: 2 (33) n (%)
  Fatigue (treatment-related AE), Grade 3/4: 0 (0) n (%)
  Lymphocytes decreased (treatment-related AE), All grades: 3 (50) n (%)
  Lymphocytes decreased (treatment-related AE), Grade 3/4: 2 (33) n (%)
  Neutropenia (treatment-related), all grades: 67%
  Neutropenia (treatment-related), grade 3/4: 33%
  Neutrophils decreased (treatment-related AE), All grades: 4 (67) n (%)
  Neutrophils decreased (treatment-related AE), Grade 3/4: 2 (33) n (%)
  Platelets decreased (treatment-related AE), All grades: 2 (33) n (%)
  Platelets decreased (treatment-related AE), Grade 3/4: 1 (17) n (%)
  WBCs decreased (treatment-related AE), All grades: 5 (83) n (%)
  WBCs decreased (treatment-related AE), Grade 3/4: 2 (33) n (%)
[1]; all cohorts (100 mg, 125 mg, 125 mg + letrozole)
  Grade ≥3 treatment-related non-hematologic AEs: No grade ≥3 treatment‐related non‐hematologic AEs were observed
[1]; whole study, 18 patients
  Deaths: No deaths
[2]
  Antitumor activity when combined with tamoxifen: synergistic antitumor activity
  Retinoblastoma protein hyperphosphorylation: inhibition of retinoblastoma protein hyperphosphorylation
  Tumor cell growth: arrest tumor cell growth
[3]; 125 mg vs 100 mg, part 1
  Dose proportionality of exposure: higher than dose‐proportional exposure
[3]; 125 mg, single dose, n = 6, median (range)
  Tmax: 4.0 (3.9–8.0) h
[3]; human, plasma, oral, 100 mg
  AUC(0-inf): 1040 ng·h/mL
  Cmax: 41.4 ng/mL
  Tmax: 5 h
[3]; human, plasma, oral, 100 mg, AUClast, single dose, n = 6
  AUC(0-t): 972 ng·h/mL
[3]; human, plasma, oral, 100 mg, AUCτ (= AUC0–24), 100 mg once daily, multiple doses (day 8 of cycle 1), n = 6
  AUC(0-t): 1280 ng·h/mL
[3]; human, plasma, oral, 100 mg, AUCτ (= AUC0–24), single dose, n = 6
  AUC(0-t): 548 ng·h/mL
[3]; human, plasma, oral, 100 mg, 100 mg once daily, multiple doses (day 8 of cycle 1), n = 6
  half-life: 23.8 ± 6.8 h
[3]; human, plasma, oral, 100 mg, single dose, n = 6
  half-life: 25.7 ± 5.3 h
[3]; human, plasma, oral, 125 mg
  AUC(0-inf): 2480 ng·h/mL
  Tmax: 4 to 5 h
  concentration at 4 h: 172 ng/mL
[3]; human, plasma, oral, 125 mg, AUClast, single dose, n = 6
  AUC(0-t): 2400 ng·h/mL
[3]; human, plasma, oral, 125 mg, AUCτ (= AUC0–24), 125 mg once daily, multiple doses (day 8 of cycle 1), n = 6
  AUC(0-t): 2840 ng·h/mL
[3]; human, plasma, oral, 125 mg, AUCτ (= AUC0–24), single dose, n = 6
  AUC(0-t): 1320 ng·h/mL
[3]; human, plasma, oral, 125 mg, 125 mg once daily, multiple doses (day 8 of cycle 1), n = 6
  half-life: 23.2 ± 7.7 h
[3]; human, plasma, oral, 125 mg, single dose, n = 6
  half-life: 23.9 ± 2.7 h
[3]; palbociclib 125 mg alone, day 8 of part 1
  Plasma palbociclib concentration, Predose [Ctrough], geometric mean: 72.8 ng/mL
[4]; 100 mg and 125 mg once daily, part 1, n = 6 each
  Patients with dose-limiting toxicity per dose level: one patient per dose level
[4]; 100 mg once daily, patient: colon cancer
  DLT: None
[4]; 100 mg once daily, patient: rectal cancer
  DLT: None
[4]; 125 mg once daily, patient: esophageal cancer
  DLT: None
[4]; 125 mg once daily, patient: fibroma
  DLT: None
[4]; 125 mg once daily, patient: rectal cancer
  DLT: None
[5]
  Plasma palbociclib concentration, Predose [Ctrough], geometric mean: 88.5 ng/mL
[6]; 100 mg, part 1, n = 6
  Patients with stable disease: three of six patients
[6]; [8]
  Best response: Indeterminate
  Progression‐free survival: 29 days
[6]; 100 mg, part 1, patient: breast cancer (second listed)
  Progression‐free survival: 75 days
[6]; 100 mg, part 1, patient: colon cancer
  Progression‐free survival: 29 days
[6]; 100 mg, part 1, patient: medullary thyroid cancer
  Progression‐free survival: 57 days
[6]; 100 mg, part 1, patient: ovarian cancer
  Progression‐free survival: 121 days
[6]; 100 mg, part 1, patient: rectal cancer
  Progression‐free survival: 223 days
[6]; 125 mg, part 1, n = 6
  Patients with stable disease: one of six patients
[6]; 125 mg, part 1, patient: acinar cell carcinoma of pancreas
  Progression‐free survival: 29 days
[6]; 125 mg, part 1, patient: breast cancer
  Progression‐free survival: 57 days
[6]; 125 mg, part 1, patient: esophageal carcinoma
  Progression‐free survival: 280 days
[6]; 125 mg, part 1, patient: fibroma
  Progression‐free survival: 28 days
[6]; 125 mg, part 1, patient: inflammatory myofibroblastic tumor
  Progression‐free survival: 28 days
[6]; 125 mg, part 1, patient: rectal cancer
  Progression‐free survival: 32 days
[6]; 100 or 125 mg, part 1
  DCR (objective response or stable disease ≥24 weeks): 17%
  Objective responses (CR or PR): not reported
[6]; part 1, 100- or 125-mg dose (rectal and esophageal cancer)
  Patients with extended stable disease (≥24 weeks): two patients
[6]; part 1 overall (100 and 125 mg, n = 12)
  Patients with stable disease: Four patients had stable disease

## N#Cc1ccc(C(c2ccc(C#N)cc2)n2cncn2)cc1 [letrozole]
[7]; letrozole 2.5 mg alone, part 2, day 1 of cycles 2 and 3
  Predose plasma letrozole concentration, geometric mean Ctrough: 146 ^† ng/mL
[7]; palbociclib 125 mg + letrozole 2.5 mg, part 2, day 15 of cycles 1 and 2
  Predose plasma letrozole concentration, geometric mean Ctrough: 131 ^‡ ng/mL
